The conditions of assay [1]: 3 mg/kg oral.
Assay [2] has as its system liver COMT. The settings on record: rat, 3 mg/kg oral; for inhibition of liver COMT activity nine hours after administration: 9 h.
Protocol: Livers from 60 day old male Wistar rats weighing 240-260 g (Harlan-Interfauna Ibérica, Barcelona, Spain), kept two per cage under controlled environmental conditions (12 h light/dark cycle and room temperature 24° C.) were used in all experiments. After decapitation, the organs were immediately removed and homogenised in 5 mM phosphate buffer of pH 7.8. COMT activity was evaluated by the ability to methylate adrenaline to metanephrine. […] The preincubation and incubation were carried out at 37° C. under conditions of light protection with continuous shaking and without oxygenation.
In experiments designed to evaluate the oral bioavailability of test substances, compounds were given by gastric tube to overnight fasted rats. Thereafter, at defined intervals, animals were killed by decapitation and livers removed and used to determine COMT activity as described above. At the end of the incubation period (5 min) the tubes were transferred to ice and the reaction was stopped by the addition of 200 μl of 2 M perchloric acid. The samples were then centrifuged (200×g, 4 min, 4° C.), and 500 μl aliquots of the supernatant, filtered on 0.22 μm pore size Spin-X filter tubes (Costar) were used for the assay of metanephrine. The assay of metanephrine was carried out by means of high pressure liquid chromatography with electrochemical detection. The lower limits for detection of metanephrine ranged from 350 to 500 fmol (0.5 to 1.0 μmol/mg protein/h).
Assay [3] in a line: Brain levels of L-DOPA and its derivatives in rats treated with L-DOPA plus benserazide. Type of assay: in vivo, rat. The settings on record: 3 mg/kg oral.
[4] abbreviates: L-DOPA 12 mg/kg plus benserazide 3 mg/kg, all pre-treatment times (1, 7 and 24 h).
Setting [5] is: L-DOPA plus benserazide, inhibitor given 24 h in advance.

Like-named read-outs stand apart in the source and are kept apart here.

From patent US8524746B2, “Dosage regimen for COMT inhibitors” (Bial-Portela & Ca., S.A., priority 2007, dated 2013) come the findings set out here.

On to `Cc1c(Cl)c(C)[n+]([O-])c(Cl)c1-c1noc(-c2cc(O)c(O)c([N+](=O)[O-])c2)n1` [Compound A, 5-[3-(2,5-dichloro-4,6-dimethyl-1-oxy-pyridin-3-yl)-[1,2,4]oxadiazol-5-yl]-3-nitrobenzene-1,2-diol], for which, in assay [1] (setting [4]), the “circulating (plasma) 3-O-methyl-L-DOPA” value is “marked decrease” and the “plasma L-DOPA” value was “significant increases”. In addition, in assay [2], the “time to maximal inhibitory effect on liver COMT” value was at most 60 min, the “inhibition of liver COMT activity nine hours after administration” value is 90 % of control levels and the “inhibition of liver COMT activity 24 hours after administration” value is reported as 60 % of controls levels. Also, in assay [3] (setting [4]), the “brain 3-O-methyl-L-DOPA” value is “marked decrease”, the “brain DOPAC” value is recorded as “significant increases”, the “brain L-DOPA” value was “significant increases” and the brain dopamine result was “significant increases”.

For `Cc1ccc(C(=O)c2cc(O)c(O)c([N+](=O)[O-])c2)cc1` [tolcapone, 3,4-dihydroxy-4′-methyl-5-nitrobenzophenone], in assay [1] (setting [5]), the “plasma 3-O-methyl-L-DOPA” value is reported as “not affected” and the “plasma L-DOPA” value is listed as “not affected”. Moreover, in assay [2], the “time to maximal inhibitory effect on liver COMT” value is at most 30 min, the “inhibition of liver COMT activity nine hours after administration” value was “minimal inhibitory effects” and the “inhibition of liver COMT activity 24 hours after administration” value is “almost devoid of COMT inhibitory properties”. For the same molecule, in assay [3] (L-DOPA plus benserazide, 2 and 7 h after administration), the “brain L-DOPA” value is given as “Significant changes”. For the same molecule, in assay [3] (setting [5]), the “brain 3-O-methyl-L-DOPA” value is reported as “not affected”, the “brain DOPAC” value is reported as “not affected”, the “brain L-DOPA” value is on record as “not affected” and the brain dopamine entry is on record as “not affected”.
